Results: ChEMBL document CHEMBL1201862, “PubChem BioAssay data set” (2004)
Active and inactive are the calls of the source.

Tests used:
[1] = biological target: T1, Corticotropin-releasing factor receptor 2/Corticotropin-releasing factor-binding protein (Homo sapiens, UniProt P24387+Q13324); test: activators of CRF receptor 2 with binding protein – uHTS hits, confirmation (AID 602473); type: functional; conditions: read-out: EC50_Mean
T1 sequence (Q13324 whole entry): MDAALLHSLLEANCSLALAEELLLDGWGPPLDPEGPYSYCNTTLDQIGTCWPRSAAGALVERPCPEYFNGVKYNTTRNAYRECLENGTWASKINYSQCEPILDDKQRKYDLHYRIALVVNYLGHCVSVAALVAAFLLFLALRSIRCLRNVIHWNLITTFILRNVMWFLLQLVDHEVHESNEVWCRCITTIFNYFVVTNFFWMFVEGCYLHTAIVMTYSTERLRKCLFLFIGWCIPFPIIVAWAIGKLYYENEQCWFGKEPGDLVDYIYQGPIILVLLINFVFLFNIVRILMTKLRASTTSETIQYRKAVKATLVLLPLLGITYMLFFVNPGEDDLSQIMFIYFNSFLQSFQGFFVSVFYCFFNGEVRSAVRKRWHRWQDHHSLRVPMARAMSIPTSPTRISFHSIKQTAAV
T1 sequence (P24387 whole entry): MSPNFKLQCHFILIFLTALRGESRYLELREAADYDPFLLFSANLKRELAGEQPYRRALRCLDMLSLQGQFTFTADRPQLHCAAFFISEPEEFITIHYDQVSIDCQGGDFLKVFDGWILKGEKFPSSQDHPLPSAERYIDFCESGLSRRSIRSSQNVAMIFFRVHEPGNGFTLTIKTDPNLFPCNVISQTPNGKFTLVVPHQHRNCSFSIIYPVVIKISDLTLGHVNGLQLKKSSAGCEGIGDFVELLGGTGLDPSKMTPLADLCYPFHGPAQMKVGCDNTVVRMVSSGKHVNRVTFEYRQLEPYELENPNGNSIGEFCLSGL

[2] = blockers of CRF-binding protein–CRF-R2 complex – cell-based, uHTS hits, 384-well, dose response (AID 651639); type: functional, Homo sapiens; conditions: read-out: IC50_Mean
Melanocortin receptor 4 = Melanocortin receptor 4 (Homo sapiens, UniProt P32245); test: inhibitors of MC4R cAMP signaling – cell-based, TR-FRET, biased antagonists, dose response (AID 602298); type: functional;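 also: antagonist potency against agonist-stimulated cAMP production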
[3] = cAMP pathway inhibition in counterscreen cell line – TR-FRET cAMP detection, counter-screen for MC4R biased antagonist project, dose response (AID 602305); type: functional, cell-based;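 also: U2OS cells stimulated with forskolin near its EC80 as the cAMP inducer; potency is for inhibition of forskolin-stimulated cAMP signaling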
[4] = biological target: T1, Corticotropin-releasing factor receptor 2/Corticotropin-releasing factor-binding protein; test: Dose Response confirmation of uHTS hits for small molecule antagonists of the CRF-binding protein and CRF-R2 receptor complex.; type: functional; conditions: read-out: IC50_Mean
[5] = biological target: Ras and Rab interactor 1/Tyrosine-protein kinase ABL1 (Homo sapiens, UniProt P00519+Q13671); type: functional;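 also: biochemical TR-FRET dose-response test measuring inhibition of binding between Rin1 and Abl proteins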
[6] = biological target: T2, Replicative DNA helicase DnaB (Mycobacterium tuberculosis, UniProt P9WMR3); test: DnaB intein splicing inhibitors, dose response, biochemical, cell-free fluorescence (AID 449749); type: functional
T2 sequence (P9WMR3 whole entry): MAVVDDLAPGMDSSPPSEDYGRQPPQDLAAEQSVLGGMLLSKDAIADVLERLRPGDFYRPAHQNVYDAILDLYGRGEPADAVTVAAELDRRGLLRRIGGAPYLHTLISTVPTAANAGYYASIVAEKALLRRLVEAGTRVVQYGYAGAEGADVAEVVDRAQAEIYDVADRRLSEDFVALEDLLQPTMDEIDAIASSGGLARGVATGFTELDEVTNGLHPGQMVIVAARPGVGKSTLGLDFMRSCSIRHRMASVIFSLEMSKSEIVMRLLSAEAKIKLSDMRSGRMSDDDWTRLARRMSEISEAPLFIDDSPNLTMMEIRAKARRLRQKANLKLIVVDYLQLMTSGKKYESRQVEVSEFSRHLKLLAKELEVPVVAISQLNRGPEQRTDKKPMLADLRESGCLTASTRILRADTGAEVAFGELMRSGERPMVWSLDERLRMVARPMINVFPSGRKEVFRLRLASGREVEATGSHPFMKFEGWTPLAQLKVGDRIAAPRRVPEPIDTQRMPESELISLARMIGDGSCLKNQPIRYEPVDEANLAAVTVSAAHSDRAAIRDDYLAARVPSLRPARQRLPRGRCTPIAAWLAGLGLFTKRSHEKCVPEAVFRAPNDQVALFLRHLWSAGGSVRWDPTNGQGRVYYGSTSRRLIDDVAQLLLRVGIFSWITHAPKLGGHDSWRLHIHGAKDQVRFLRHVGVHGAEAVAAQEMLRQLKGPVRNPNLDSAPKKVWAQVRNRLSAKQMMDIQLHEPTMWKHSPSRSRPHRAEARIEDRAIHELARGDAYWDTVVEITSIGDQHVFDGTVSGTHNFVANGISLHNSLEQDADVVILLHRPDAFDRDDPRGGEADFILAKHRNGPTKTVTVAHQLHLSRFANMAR

Protein RecA = biological target: T3, Protein RecA (Mycobacterium tuberculosis, UniProt P9WHJ3); test: Fluorescence Cell-Free Homogeneous Dose Retest to Identify Inhibitors of RecA-Intein Splicing Activity. [Related pubchem assays (depositor defined):AID2097, AID2223, AID489010, AID492950]; type: functional
T3 sequence (P9WHJ3 whole entry): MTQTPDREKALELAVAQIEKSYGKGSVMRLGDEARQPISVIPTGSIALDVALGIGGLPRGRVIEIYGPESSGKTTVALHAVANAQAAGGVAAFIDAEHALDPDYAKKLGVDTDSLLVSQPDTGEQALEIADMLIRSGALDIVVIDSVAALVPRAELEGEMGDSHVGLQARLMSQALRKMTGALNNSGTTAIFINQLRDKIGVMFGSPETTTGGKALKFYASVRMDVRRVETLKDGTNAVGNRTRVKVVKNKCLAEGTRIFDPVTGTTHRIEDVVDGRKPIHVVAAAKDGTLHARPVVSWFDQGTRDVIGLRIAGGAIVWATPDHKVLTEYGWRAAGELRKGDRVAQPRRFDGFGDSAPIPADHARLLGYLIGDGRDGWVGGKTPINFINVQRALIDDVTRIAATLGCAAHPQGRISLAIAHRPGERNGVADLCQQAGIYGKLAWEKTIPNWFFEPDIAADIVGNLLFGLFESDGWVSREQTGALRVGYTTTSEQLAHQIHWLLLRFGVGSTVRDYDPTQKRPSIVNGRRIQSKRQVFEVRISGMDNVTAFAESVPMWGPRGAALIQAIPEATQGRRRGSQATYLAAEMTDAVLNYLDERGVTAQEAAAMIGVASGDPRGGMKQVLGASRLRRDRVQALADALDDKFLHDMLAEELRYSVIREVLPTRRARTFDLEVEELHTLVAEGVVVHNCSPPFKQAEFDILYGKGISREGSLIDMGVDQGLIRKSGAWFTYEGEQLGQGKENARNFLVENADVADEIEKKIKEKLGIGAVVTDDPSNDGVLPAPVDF

[7] = biological target: ALK tyrosine kinase receptor (Homo sapiens, UniProt Q9UM73); type: functional;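 also: ALK tested as one member of a kinase panel screen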
Aurora kinase A = biological target: T4, Aurora kinase A (Homo sapiens, UniProt O14965); type: functional;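 also: value from the Navigating the Kinome kinase panel profiling, panel entry STK6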
T4 sequence (O14965 whole entry): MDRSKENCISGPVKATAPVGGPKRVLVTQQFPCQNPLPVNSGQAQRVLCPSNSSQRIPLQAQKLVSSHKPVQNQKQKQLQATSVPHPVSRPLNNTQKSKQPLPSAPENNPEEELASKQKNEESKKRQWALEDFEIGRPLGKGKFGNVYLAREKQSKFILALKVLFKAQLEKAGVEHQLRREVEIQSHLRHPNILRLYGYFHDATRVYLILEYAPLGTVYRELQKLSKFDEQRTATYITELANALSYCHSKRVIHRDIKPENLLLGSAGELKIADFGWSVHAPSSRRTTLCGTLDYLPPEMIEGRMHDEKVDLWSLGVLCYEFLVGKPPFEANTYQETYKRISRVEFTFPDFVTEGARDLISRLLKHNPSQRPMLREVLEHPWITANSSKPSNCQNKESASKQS

Aurora kinase B = Aurora kinase B (Homo sapiens, UniProt Q96GD4); type: functional
[8] = biological target: Vascular endothelial growth factor receptor 2 (Homo sapiens, UniProt P35968); type: functional
[9] = biological target: T5, Small ubiquitin-related modifier 1 (Homo sapiens, UniProt P63165); test: SUMO1 protein interaction blockers, potency – biochemical, fluorescence polarization, uHTS hits, dose response (AID 624382); type: functional; conditions: read-out: IC50_Mean
[10] = biological target: T5, Small ubiquitin-related modifier 1; test: SUMO1 protein-protein binding blockers, potency – biochemical, FRET, dose response (AID 624383); type: functional; conditions: read-out: IC50_Mean
HEK293 [11] = test: membrane integrity loss in HEK cells – cell-based, fluorescence, cytotoxicity control for IDE activator project, dose response (AID 588440); type: functional; conditions: Homo sapiens;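 also: cytotoxicity by LDH release measuring loss of membrane integrity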
HEK293 [12] = test: optical interference in Abeta FP readout, dose response, artefact control for IDE activator project, biochemical, fluorescence polarization (AID 588442); type: functional, cell-based; conditions: Homo sapiens
Insulin-degrading enzyme [13] = biological target: T6, Insulin-degrading enzyme (Homo sapiens, UniProt P14735); test: cellular IDE activation of Abeta substrate cleavage – fluorescence polarization, HEK cells, dose response (AID 588439); type: functional, cell-based
T6 sequence (P14735 whole entry): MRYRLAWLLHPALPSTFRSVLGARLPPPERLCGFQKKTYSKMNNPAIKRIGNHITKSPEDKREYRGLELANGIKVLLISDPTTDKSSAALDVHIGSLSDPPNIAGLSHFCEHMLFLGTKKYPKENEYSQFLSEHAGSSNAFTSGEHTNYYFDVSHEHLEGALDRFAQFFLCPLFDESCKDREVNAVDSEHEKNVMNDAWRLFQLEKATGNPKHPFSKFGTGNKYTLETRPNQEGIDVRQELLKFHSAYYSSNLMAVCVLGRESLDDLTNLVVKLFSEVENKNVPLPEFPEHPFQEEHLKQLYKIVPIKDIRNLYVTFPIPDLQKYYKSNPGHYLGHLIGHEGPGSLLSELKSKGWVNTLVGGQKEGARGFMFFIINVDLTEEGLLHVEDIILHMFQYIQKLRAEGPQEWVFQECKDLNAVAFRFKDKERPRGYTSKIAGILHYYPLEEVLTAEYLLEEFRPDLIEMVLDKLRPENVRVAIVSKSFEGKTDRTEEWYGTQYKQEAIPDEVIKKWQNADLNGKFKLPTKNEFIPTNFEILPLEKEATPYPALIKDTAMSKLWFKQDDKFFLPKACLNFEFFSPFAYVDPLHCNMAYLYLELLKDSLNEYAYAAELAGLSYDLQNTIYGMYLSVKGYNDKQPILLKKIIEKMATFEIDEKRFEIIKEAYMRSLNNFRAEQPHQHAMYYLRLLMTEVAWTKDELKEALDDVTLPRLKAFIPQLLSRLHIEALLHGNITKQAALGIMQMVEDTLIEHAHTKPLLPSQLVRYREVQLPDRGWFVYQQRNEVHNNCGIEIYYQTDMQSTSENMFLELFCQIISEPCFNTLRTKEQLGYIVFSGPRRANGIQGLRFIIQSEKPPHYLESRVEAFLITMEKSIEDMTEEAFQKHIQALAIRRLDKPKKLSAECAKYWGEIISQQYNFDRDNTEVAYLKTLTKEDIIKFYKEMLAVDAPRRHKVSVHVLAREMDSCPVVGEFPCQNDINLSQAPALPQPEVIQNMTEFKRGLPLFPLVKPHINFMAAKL

Insulin-degrading enzyme [14] = biological target: T6, Insulin-degrading enzyme; test: recombinant IDE activation, cell-free – biochemical, fluorescence polarization, counter-screen for IDE activator project, dose response (AID 588681)
[15] = biological target: Hepatocyte nuclear factor 4-alpha (Homo sapiens, UniProt P41235); type: functional, cell-based;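 also: biochemical luminescence-based dose-response counterscreen measuring inhibition of HNF4 dimerization, run alongside a screen for blockers of ABHD5–perilipin-5 interaction; split luciferase complementation of HNF4 fusion proteins in cell lysate measuring dimerization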
Chain of Hepatocyte nuclear factor 4-alpha (P41235 whole entry, the tested form may be a part): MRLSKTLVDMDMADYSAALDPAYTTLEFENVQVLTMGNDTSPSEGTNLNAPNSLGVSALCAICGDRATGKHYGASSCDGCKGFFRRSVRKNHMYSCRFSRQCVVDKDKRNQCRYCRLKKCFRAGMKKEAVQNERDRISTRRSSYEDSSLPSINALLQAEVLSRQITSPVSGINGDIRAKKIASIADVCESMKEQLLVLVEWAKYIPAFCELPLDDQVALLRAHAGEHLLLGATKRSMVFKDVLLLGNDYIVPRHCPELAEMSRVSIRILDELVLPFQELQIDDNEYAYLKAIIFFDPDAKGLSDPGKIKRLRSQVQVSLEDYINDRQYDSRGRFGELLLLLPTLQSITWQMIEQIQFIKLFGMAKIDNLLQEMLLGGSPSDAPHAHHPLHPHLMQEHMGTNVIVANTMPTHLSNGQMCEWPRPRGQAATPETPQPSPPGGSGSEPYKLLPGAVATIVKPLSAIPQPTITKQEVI

Chain of Melanocortin receptor 4 (P32245 whole entry): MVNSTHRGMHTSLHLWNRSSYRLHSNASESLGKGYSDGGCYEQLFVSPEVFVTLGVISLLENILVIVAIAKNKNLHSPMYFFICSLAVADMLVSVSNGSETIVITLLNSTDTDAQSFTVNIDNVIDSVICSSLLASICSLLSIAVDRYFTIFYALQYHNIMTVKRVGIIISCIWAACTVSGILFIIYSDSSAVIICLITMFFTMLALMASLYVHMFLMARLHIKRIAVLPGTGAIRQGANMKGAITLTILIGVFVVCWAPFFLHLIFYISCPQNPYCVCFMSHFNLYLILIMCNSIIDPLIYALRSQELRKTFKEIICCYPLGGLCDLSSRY
Chain of Aurora kinase B (Q96GD4 whole entry): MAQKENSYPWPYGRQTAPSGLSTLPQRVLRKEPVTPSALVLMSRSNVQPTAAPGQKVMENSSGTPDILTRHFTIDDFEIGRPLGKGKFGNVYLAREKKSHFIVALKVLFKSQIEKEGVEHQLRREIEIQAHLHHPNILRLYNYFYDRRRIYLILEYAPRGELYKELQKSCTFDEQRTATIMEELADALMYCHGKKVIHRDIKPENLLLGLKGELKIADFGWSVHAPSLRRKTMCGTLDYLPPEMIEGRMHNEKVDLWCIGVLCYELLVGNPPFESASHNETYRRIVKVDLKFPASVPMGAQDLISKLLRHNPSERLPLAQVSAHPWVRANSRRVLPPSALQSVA
T5 sequence (P63165 whole entry): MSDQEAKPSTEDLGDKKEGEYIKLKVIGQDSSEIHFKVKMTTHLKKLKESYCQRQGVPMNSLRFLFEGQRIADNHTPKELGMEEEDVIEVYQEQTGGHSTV
Chain of Ras and Rab interactor 1/Tyrosine-protein kinase ABL1 (P00519 whole entry): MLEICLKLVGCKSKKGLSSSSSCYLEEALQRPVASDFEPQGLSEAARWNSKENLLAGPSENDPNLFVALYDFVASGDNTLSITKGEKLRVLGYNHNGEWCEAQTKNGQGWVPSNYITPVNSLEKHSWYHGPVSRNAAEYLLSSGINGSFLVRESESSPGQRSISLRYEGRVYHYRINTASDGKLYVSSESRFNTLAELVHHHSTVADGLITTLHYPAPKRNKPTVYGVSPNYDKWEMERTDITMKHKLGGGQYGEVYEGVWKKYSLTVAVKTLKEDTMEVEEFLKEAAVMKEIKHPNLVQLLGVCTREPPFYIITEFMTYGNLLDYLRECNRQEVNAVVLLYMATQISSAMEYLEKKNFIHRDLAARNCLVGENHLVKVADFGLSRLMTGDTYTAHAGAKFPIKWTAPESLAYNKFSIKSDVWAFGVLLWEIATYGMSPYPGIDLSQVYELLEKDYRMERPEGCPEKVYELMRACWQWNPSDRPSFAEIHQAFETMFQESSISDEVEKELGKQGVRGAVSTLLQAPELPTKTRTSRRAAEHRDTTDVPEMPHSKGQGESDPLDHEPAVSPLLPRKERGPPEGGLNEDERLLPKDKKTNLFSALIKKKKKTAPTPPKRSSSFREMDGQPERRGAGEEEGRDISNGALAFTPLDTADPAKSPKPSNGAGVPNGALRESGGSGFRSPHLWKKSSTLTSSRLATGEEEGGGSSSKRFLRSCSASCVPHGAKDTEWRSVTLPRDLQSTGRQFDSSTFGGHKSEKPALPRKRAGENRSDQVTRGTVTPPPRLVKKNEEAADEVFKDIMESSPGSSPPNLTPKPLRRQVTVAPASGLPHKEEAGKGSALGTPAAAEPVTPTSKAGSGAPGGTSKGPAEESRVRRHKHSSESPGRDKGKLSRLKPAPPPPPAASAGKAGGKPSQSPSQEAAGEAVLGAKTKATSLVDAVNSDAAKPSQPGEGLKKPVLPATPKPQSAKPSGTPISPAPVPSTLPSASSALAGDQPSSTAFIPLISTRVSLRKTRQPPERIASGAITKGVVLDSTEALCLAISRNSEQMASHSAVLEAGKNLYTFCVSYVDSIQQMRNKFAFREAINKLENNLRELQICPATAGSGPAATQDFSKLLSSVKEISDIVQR
Chain of Ras and Rab interactor 1/Tyrosine-protein kinase ABL1 (Q13671 whole entry): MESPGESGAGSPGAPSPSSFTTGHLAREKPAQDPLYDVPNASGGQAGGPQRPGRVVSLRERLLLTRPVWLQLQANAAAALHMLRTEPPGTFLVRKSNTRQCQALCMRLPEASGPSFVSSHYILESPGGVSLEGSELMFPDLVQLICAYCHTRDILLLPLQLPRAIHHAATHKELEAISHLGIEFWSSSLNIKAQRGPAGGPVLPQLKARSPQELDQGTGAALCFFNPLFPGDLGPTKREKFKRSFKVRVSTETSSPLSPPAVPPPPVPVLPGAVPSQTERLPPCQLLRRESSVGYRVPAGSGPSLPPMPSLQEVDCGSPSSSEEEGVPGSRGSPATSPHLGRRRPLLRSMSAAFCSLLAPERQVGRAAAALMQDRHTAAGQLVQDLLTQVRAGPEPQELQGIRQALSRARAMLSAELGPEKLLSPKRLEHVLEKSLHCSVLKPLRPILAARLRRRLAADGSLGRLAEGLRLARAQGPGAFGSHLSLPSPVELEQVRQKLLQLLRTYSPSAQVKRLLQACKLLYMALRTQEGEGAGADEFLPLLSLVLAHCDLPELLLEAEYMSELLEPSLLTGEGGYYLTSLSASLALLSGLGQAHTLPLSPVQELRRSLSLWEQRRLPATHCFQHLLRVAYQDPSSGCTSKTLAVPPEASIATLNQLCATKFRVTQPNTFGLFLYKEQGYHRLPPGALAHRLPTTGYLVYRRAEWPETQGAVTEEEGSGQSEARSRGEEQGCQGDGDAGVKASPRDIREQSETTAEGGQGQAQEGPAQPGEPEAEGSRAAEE
Chain of ALK tyrosine kinase receptor (Q9UM73 whole entry): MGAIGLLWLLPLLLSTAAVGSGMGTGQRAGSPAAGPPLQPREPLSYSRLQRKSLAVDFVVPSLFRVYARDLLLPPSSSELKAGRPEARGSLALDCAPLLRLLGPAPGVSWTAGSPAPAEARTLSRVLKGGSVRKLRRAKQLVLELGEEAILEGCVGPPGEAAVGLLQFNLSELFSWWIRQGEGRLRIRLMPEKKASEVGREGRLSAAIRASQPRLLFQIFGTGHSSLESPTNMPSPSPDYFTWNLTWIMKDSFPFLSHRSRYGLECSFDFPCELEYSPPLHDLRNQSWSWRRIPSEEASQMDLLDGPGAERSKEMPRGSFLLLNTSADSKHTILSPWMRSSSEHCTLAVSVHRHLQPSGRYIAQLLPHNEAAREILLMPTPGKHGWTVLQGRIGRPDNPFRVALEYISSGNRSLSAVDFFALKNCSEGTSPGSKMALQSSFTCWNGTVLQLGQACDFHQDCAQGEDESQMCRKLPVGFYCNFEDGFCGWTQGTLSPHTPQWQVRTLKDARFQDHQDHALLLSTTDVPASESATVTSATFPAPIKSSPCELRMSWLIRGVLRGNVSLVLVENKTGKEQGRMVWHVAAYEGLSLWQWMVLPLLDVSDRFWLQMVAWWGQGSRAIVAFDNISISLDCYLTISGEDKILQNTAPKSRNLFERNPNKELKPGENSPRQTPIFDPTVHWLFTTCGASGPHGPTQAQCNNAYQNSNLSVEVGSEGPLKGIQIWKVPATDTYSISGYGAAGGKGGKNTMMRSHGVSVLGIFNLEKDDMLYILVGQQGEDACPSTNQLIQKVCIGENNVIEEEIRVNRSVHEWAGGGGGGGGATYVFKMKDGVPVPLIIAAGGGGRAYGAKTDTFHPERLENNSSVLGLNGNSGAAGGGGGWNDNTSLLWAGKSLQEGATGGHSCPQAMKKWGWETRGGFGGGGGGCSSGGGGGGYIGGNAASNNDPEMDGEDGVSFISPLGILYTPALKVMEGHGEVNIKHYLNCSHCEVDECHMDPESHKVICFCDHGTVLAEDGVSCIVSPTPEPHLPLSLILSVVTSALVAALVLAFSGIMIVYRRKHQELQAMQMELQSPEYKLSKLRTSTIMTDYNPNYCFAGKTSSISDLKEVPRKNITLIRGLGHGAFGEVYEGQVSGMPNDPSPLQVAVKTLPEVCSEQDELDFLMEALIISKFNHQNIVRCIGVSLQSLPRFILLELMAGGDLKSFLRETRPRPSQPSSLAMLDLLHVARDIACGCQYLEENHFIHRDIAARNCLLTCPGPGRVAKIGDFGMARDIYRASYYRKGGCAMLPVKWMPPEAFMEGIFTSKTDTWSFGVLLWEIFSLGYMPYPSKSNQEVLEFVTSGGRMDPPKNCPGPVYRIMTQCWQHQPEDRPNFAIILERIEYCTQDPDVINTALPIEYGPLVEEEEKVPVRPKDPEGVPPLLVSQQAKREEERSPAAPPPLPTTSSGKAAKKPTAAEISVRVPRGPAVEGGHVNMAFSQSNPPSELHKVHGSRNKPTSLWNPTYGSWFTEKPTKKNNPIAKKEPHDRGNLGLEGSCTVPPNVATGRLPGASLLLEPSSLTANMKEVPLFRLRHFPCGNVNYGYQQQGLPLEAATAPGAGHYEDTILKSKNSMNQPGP

## O=C(O)c1cnn(-c2nc(-c3ccc(Cl)c(Cl)c3)cs2)c1C(F)(F)F
[1]
  EC50: 43.4 µM (active)
[2]
  IC50: 11 µM (active)
Melanocortin receptor 4
  IC50: 5 µM (active)
[3]
  IC50: > 64.6 µM (inactive)
[4]
  IC50: 13.2 µM (active)

## COc1ccc(OC)c(NC(=O)Cc2ccc(NC3=NC4CS(=O)(=O)CC4S3)cc2)c1 (stereo not given)
[5]
  IC50: 14.1 µM (inactive)
[6]
  AC50: > 380 µM (inactive)
Protein RecA
  EC50: > 380 µM (inactive)

## COC(=O)c1ccc(COC(=O)c2ccc(-n3cnnn3)cc2)o1
[5]
  IC50: 21.1 µM (inactive)

## NC(=O)c1ccc(SCC(=O)OCC(=O)NCC2CCCCC2)c([N+](=O)[O-])c1
Melanocortin receptor 4
  IC50: > 64.5 µM (inactive)
[3]
  IC50: > 64.5 µM (inactive)

## NC(=O)c1cccc2nc(-c3ccc(-n4ccc(CN5CCCCC5)c4)cc3)[nH]c12
[7]
  Ki: > 3.16 µM (inactive)
Aurora kinase A
  Ki: > 2 µM (inactive)
Aurora kinase B
  Ki: 39.8 nM (active)
[8]
  Ki: 2 µM (active)

## CN(C)C(=O)C=Cc1ccc(-c2ccc(NC(=O)Nc3cccc(C(F)(F)F)c3)cc2)c2c(N)n[nH]c12
Aurora kinase A
  Ki: 0.0398 µM (active)
Aurora kinase B
  Ki: 3.16 nM (active)

## CCCCCC(=O)Nc1nc(C)c(-c2csc(Nc3cc(Cl)ccc3C)n2)s1
[9]
  IC50: > 66.6 µM (inactive)
[10]
  IC50: 10.7 µM (active)

## CC(OC(=O)CC1CC2CCC1C2)C(=O)Nc1cccc(S(=O)(=O)N2CCOCC2)c1 (stereo not given)
HEK293 [11]
  IC50: > 89.2 µM (inactive)
HEK293 [12]
  EC50: > 54.7 µM (inactive)
Insulin-degrading enzyme [13]
  EC50: > 54.7 µM (inactive)
Insulin-degrading enzyme [14]
  EC50: > 54.7 µM (inactive)

## COc1cc(C(C)=O)ccc1OCc1cn(CC(=O)c2ccc(O)cc2)nn1
[15]
  IC50: 5.85 µM (active)

## O=C1c2ccccc2C(=O)N1SC1CCCCC1
Melanocortin receptor 4
  IC50: 62 µM (inactive)
[3]
  IC50: 63.7 µM (inactive)

## CC1(c2nnc(Cc3ccccc3)o2)CC(c2c(Cl)cccc2Cl)=NO1 (stereo not given)
HEK293 [11]
  IC50: > 89.2 µM (inactive)
HEK293 [12]
  EC50: > 55.9 µM (inactive)
Insulin-degrading enzyme [13]
  EC50: > 54.7 µM (inactive)
Insulin-degrading enzyme [14]
  EC50: > 54.7 µM (inactive)
